The target in experiment [1] is T1, β-fructofuranosidase from Schwanniomyces occidentalis (Ffase) (Schwanniomyces occidentalis, UniProt E5D0X5, D50A).
T1 construct: expressed in Saccharomyces cerevisiae (SUC2-disrupted), secreted, DEAE-purified; homodimer of 160 kDa, 535 residues per subunit; GH32; deglycosylated for crystals
Put plainly: X-ray crystallography (soaking). The format is binding.

Experiment [2] concerns the target T1, β-fructofuranosidase from Schwanniomyces occidentalis (Ffase). Put plainly: X-ray crystallography. The format is binding. The settings on record: crystals incubated with fructosyl-mannitol, sucrose from traces in the product; deglycosylated inactive mutant; active site subsites -1/+1; paper deposits 6S2B and 6S1T without assigning them.

T1 sequence (E5D0X5 entry or part of it D50A): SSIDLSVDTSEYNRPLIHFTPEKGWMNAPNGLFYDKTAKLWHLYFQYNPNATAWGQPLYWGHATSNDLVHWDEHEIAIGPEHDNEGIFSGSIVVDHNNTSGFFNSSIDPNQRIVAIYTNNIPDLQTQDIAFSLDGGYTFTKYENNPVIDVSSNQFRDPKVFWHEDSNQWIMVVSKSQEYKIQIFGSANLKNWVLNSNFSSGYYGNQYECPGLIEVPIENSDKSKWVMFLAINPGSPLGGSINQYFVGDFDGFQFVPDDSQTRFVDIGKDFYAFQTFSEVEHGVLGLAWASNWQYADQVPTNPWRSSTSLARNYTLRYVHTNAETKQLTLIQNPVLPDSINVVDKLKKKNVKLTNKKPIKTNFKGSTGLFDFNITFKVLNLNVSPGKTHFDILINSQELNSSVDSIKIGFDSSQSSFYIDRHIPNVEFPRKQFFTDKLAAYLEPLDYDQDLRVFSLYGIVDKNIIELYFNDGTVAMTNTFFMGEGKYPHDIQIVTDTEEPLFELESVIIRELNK

`OCC(O)C(O)CO[C@]1(CO)O[C@H](CO)[C@@H](O)[C@@H]1O` (stereo partly drawn) [fructosyl-erythritol, 1/4-O-β-D-fructofuranosyl-D-erythritol]: in experiment [1] (100 mM ligand soak, pH 6.0, deglycosylated inactive mutant, active site subsites -1/+1, 1.88 Å, paper deposits 6S2B and 6S1T without assigning them), the “X-ray crystallography (soaking)” value was “The formation of Ffase-D50A/fructosyl-erythritol complex was clearly detected”.
`OC[C@H]1O[C@@](CO)(O[C@H]2O[C@H](CO)[C@@H](O)[C@H](O)[C@H]2O)[C@@H](O)[C@@H]1O` [sucrose]: the X-ray crystallography entry in experiment [2] is recorded as “only sucrose was observed in crystals grown in the presence of fructosyl-mannitol”.
`OC[C@@]1(O)OC[C@@H](O)[C@@H](O)[C@@H]1O` [β-fructose]: in experiment [1] (soaked with β-fructose plus mannitol or erythritol, active site, structure not deposited), the “X-ray crystallography (soaking)” value is given as “only fructose was bound at the active site in both experiments”.

These data come from paper PMC8010047, “New insights into the molecular mechanism behind mannitol and erythritol fructosylation by β-fructofuranosidase from Schwanniomyces occidentalis” (Scientific Reports, 2021).
